Kd data for 1 compound are collected here from publication PMC10878246, “Crystal structure and biochemical activity of the macrodomain from rubella virus p150” (Journal of virology, 2024).

The assay deals with T1, RuV macrodomain (macrodomain from rubella virus p150) (Rubella virus, UniProt G3M8F4).
T1 construct: gene NSP; macrodomain, p150 residues 805-983 (p150 is cut from nonstructural polyprotein p200); pET24a, C-terminal His6 tag, no tag cleavage described; E. coli BL21(DE3)
Put plainly: isothermal titration calorimetry. Format: binding. The note with it: 20 mM HEPES pH 8, 0.15 M NaCl, 25 °C; 1:1 single-site; crystal structure by soaking with 2 mM ADP-ribose.

In the case of `Nc1ncnc2c1ncn2[C@@H]1O[C@H](COP(=O)(O)OP(=O)(O)OC[C@H]2OC(O)[C@H](O)[C@@H]2O)[C@@H](O)[C@H]1O` (stereo partly shown) [ADP-ribose], the Kd was 58.1 ± 5.4 µM.
